Measured values reported in patent publication US4550170A, “6-Phenyl-2,3,5,6-tetrahydroimidazo-[2,1-b]-thiazole derivatives” (Institut Organicheskoi Khimii Akademii Nauk Ukrainskoi SSR, priority 1984, dated 1985).
Counter-ions that a name gives are not always drawn. Like-named read-outs stand apart in the source and are kept apart here.

Assays:
[1] = system: allergic reaction of the delayed type in mice; test: delayed-type (contact) hypersensitivity reaction to dinitrochlorobenzene, ear thickness in mice; assay type: in vivo, CBA mice; details: for Ear thickness, Control, Average value / Ear thickness, Control, Range of fluctuations: control (right) ear; for Ear thickness, Experiment, Average value / Ear thickness, Experiment, Range of fluctuations: test (left) ear
human tonsillocytes [2] = test: natural cytotoxicity (natural killers) of human tonsillocytes, 51Cr release; assay type: cell-based; details: for Yield of 51Cr from target cells, natural cytotoxicity, average value: (III) significant P below 0.05
Description: (§1) The cytolytic effect of tonsillocytes was studied by the radioisotope method using Cr^51. On doing so, the deterioration of target cells (chicken's erythrocytes) by tonsil lymphocytes was regarded as spontaneous cytolysis, while the destruction of the target cells loaded, in addition to the isotopic tracer, with homologous antibodies in the sublytic dose was considered as antibody-dependent cytolysis. […] Afterwards they were twice washed by means of Medium 199 using centrifugation (105 g, 10 minutes). […] The degree of destruction of the target cells was determined radiometrically by the outcome of Cr^51 into the liquid phase.

human tonsillocytes [3] = test: antibody-dependent cytotoxicity of human tonsillocytes, 51Cr release; assay type: cell-based; details: for minimal effective concentration: Homo sapiens, read-out: concentration stimulating the antibody-dependent cytolytic activity
Description: as §1, with “On this basis, the effect of one of the lest toxic compound (III) out of those of the present invention was studied for the antibody-dependent cytolytic activity of cells. […] The cytolytic” for “The cytolytic”

[4] = system: virus of vesicular stomatitis; assay type: cell-based
[5] = system: Staphylococcus aureus, Proteum, Bacillus pyocyanes; test: antibacterial activity in vitro, serial dilutions; assay type: cell-based; details: relative to compound (II)
Protocol: In the experiments in vitro the antibacterial activity of the compounds of the present invention was studied. To this end, serial dilutions of compounds (II) and (III) with a concentration of from 1% to 0.00001% were prepared and 0.1 ml of a microbal suspension was added thereto (Staphylococcus aureus, Proteum, Bacillus pyocyanes). The microbal load for staphylococcus was about 1×10^5 cells/ml, for Proteum and Bacillus pyocyanes -1×10^4 c cells/ml. […] The bacteria were incubated along with the compounds according to the present invention at the temperature of 37° C. […] Inoculations were effected by spreading 0.1 ml of a suspension of bacteria in a corresponding dilution of the compounds over the surface of an agar dish using a glass spatula.

[6] = physical properties of the compounds; assay type: physicochemical
in vivo [7] = details: mouse, sc
in vivo [8] = details: rat, rats
in vivo [9] = details: rabbit
[10] = system: IgE antibodies in respiratory organs
Protocol: The local production of IgE-antibodies in trachea and lungs of rats of the lines WAY, August with a mass of 250-300 g was induced by means of a successive (with the interval of 40 minutes) dropping a 0.1% solution of histamine and ambrosia allergen (10,000 PNU/ml) into both nasal passages. […] One day after the administration of the allergen IgE-antibodies were determined in homogenates of trachea and lungs prepared at the rate of 0.1 ml of a physiological solution per 10 mg of the tissue by the method of indirect degranulation of obese cells.

[11] = system: delayed-type hypersensitivity reaction; test: delayed-type hypersensitivity reaction to 2,4-dinitrochlorobenzene in guinea pigs; assay type: in vivo
[12] = system: delayed-type hypersensitivity reaction; test: delayed-type hypersensitivity reaction to rat's thymocytes in mice (popliteal lymph nodes); assay type: in vivo; details: for effect on the development of the delayed-type hypersensitivity reactions: Table 3 (mice and guinea pigs)
splenocytes = test: effect on cyclic nucleotides (c-AMP, c-GMP) and phosphodiesterase of c-AMP; assay type: cell-based
immune system = details: prior art; cited from earlier work
[13] = prior art, hydrochloride, cited from earlier work
[14] = 1 μg/ml, (III) significant P below 0.05
[15] = 10 μg/ml, (III) significant P below 0.05
[16] = 100 μg/ml, levamizole significant P below 0.05
[17] = 100 μg/ml, certainty: (II), (III) below 0.05, (I), levamizole above 0.05
[18] = 500 μg/ml, certainty: all below 0.05
[19] = second levamizole line, printed 2.5 mg/kg
[20] = 100 μg/ml, negative = test value exceeded the control

NC(=O)C[N+]1=C2SCCN2CC1c1ccccc1 (stereo not shown) [Compound (III), 2,3,5,6-tetrahydro-6-phenyl-7-carbamoylmethylimidazo-[2,1-b]-thiazolium bromide]
Ear thickness, Control, Average value ([1]; 2.5 mg/kg per os): 176.7 μm | Ear thickness, Control, Range of fluctuations ([1]; 2.5 mg/kg per os): 110-210 μm | Ear thickness, Experiment, Average value ([1]; 2.5 mg/kg per os): 184.4 μm | Ear thickness, Experiment, Range of fluctuations ([1]; 2.5 mg/kg per os): 110-220 μm | Ear thickness, Control, Average value ([1]; 25 mg/kg per os): 184.4 μm | Ear thickness, Control, Range of fluctuations ([1]; 25 mg/kg per os): 170-200 μm | Ear thickness, Experiment, Average value ([1]; 25 mg/kg per os): 190.0 μm | Ear thickness, Experiment, Range of fluctuations ([1]; 25 mg/kg per os): 170-200 μm | dose sufficient for inhibition of the contact hypersensitivity, lower than that of levamizole ([1]; ratio to levamizole): 10 times | Yield of 51Cr from target cells, natural cytotoxicity, range of fluctuations (human tonsillocytes [2]; 1 μg/ml): 7.0-60.0% | Yield of 51Cr from target cells, natural cytotoxicity, average value (human tonsillocytes [2]; 1 μg/ml): 30.6% | Yield of 51Cr from target cells, natural cytotoxicity, range of fluctuations (human tonsillocytes [2]; 10 μg/ml): 7.0-42.0% | Yield of 51Cr from target cells, natural cytotoxicity, average value (human tonsillocytes [2]; 10 μg/ml): 28.8% | Yield of 51Cr from target cells, natural cytotoxicity, range of fluctuations (human tonsillocytes [2]; 100 μg/ml): 1.0-40.0% | Yield of 51Cr from target cells, natural cytotoxicity, average value (human tonsillocytes [2]; 100 μg/ml): 24.8% | Yield of 51Cr from target cells, antibody dependent cytotoxicity, range of fluctuations (human tonsillocytes [3]; 1 μg/ml): 10.0-57.0% | Yield of 51Cr from target cells, antibody dependent cytotoxicity, average (human tonsillocytes [3]; [14]): 23.2% | Yield of 51Cr from target cells, antibody dependent cytotoxicity, range of fluctuations (human tonsillocytes [3]; 10 μg/ml): 13.0-36.0% | Yield of 51Cr from target cells, antibody dependent cytotoxicity, average (human tonsillocytes [3]; [15]): 22.6% | Yield of 51Cr from target cells, antibody dependent cytotoxicity, range of fluctuations (human tonsillocytes [3]; 100 μg/ml): 4.0-40.0% | Yield of 51Cr from target cells, antibody dependent cytotoxicity, average (human tonsillocytes [3]; [16]): 19.1% | minimal effective concentration (human tonsillocytes [3]): 1 to 10 µg/mL | stimulating concentration lower as compared to levamizole, antibody-dependent cytolytic activity (human tonsillocytes [3]; ratio to levamizole): 10-100 times | Degree of inhibition of the virus reproduction ([4]; 1 μg/ml): 10 times | Degree of inhibition of the virus reproduction ([4]; 10 μg/ml): 100 times | antibacterial activity lower by a factor of [5]: 2 | solubility in acetone ([6]; acetone): only slightly soluble | solubility in benzene ([6]; benzene): only slightly soluble | solubility in lower alcohols ([6]; lower alcohols): well soluble | solubility in water ([6]; water): well soluble | LD50 (in vivo [7]): 1020 mg/kg | LD50 (in vivo [8]; po, LD50 upon peroral administration, female): 3500 mg/kg | LD50 (in vivo [8]; po, LD50 upon peroral administration, male): 5750 mg/kg | LD50 (in vivo [8]; sc, LD50 upon subcutaneous injection, female): 1420 mg/kg | LD50 (in vivo [8]; sc, LD50 upon subcutaneous injection, male): 2580 mg/kg | LD50 (in vivo [9]; po): 3330 mg/kg | LD50 (in vivo [9]; sc): 317 mg/kg | Percent of degranulated mastocytes, Lungs [10, 17]: 10.6 ± 3.9% | Percent of degranulated mastocytes, Trachea [10, 17]: 9.1 ± 2.1% | Percent of degranulated mastocytes, Lungs [10, 18]: 6.1 ± 1.1% | Percent of degranulated mastocytes, Trachea [10, 18]: 7.1 ± 1.7%

c1ccc([C@H]2CN3CCSC3=N2)cc1 [levamizole, L-(-)-2,3,5,6-tetrahydro-6-phenylimidazo-[2,1-b]-thiazole hydrochloride, reference compound]
Ear thickness, Control, Average value ([1]; 2.5 mg/kg per os): 162.3 μm | Ear thickness, Control, Range of fluctuations ([1]; 2.5 mg/kg per os): 130-200 μm | Ear thickness, Experiment, Average value ([1]; 2.5 mg/kg per os): 210.0 μm | Ear thickness, Experiment, Range of fluctuations ([1]; 2.5 mg/kg per os): 160-280 μm | dose inhibiting the development of the contact hypersensitivity ([1]; per os): 25 mg/kg | Ear thickness, Control, Average value [1, 19]: 179.2 μm | Ear thickness, Control, Range of fluctuations [1, 19]: 160-190 μm | Ear thickness, Experiment, Average value [1, 19]: 179.2 μm | Ear thickness, Experiment, Range of fluctuations [1, 19]: 170-190 μm | Difference in temperature of the pad surfaces, Average value [11, 20]: -1.3 ± 0.06 °C | Difference in thickness of control and test talipes, Average value [11, 20]: -0.75 ± 0.08 mm | Difference in temperature of the pad surfaces, Average value ([11]; 1,000 μg/ml): +1.1 ± 0.11 °C | Difference in thickness of control and test talipes, Average value ([11]; 1,000 μg/ml): +0.51 ± 0.064 mm | effect on the development of the delayed-type hypersensitivity reactions ([12]; 100 μg/ml): surely stimulates | Difference in masses of popliteal lymph nodes in the control and test limb, Average value [12, 20]: -0.9 ± 0.13 mg | Difference in masses of popliteal lymph nodes in the control and test limb, Average value ([12]; 500 μg/ml): +1.0 ± 0.13 mg | Difference in masses of popliteal lymph nodes in the control and test limb, Average value ([12]; 1,000 μg/ml): +1.2 ± 0.12 mg | effect on the development of the delayed-type hypersensitivity reactions ([12]; 500 and 1,000 μg/ml): effectively inhinits | Yield of 51Cr from target cells, natural cytotoxicity, range of fluctuations (human tonsillocytes [2]; 1 μg/ml): 3.0-41.0% | Yield of 51Cr from target cells, natural cytotoxicity, average value (human tonsillocytes [2]; 1 μg/ml): 16.2% | Yield of 51Cr from target cells, natural cytotoxicity, range of fluctuations (human tonsillocytes [2]; 10 μg/ml): 5.0-53.0% | Yield of 51Cr from target cells, natural cytotoxicity, average value (human tonsillocytes [2]; 10 μg/ml): 18.4% | Yield of 51Cr from target cells, natural cytotoxicity, range of fluctuations (human tonsillocytes [2]; 100 μg/ml): 5.0-49.0% | Yield of 51Cr from target cells, natural cytotoxicity, average value (human tonsillocytes [2]; 100 μg/ml): 20.5% | activity of natural killers of tonsil cells (human tonsillocytes [2]; levamizole): not noticeably changed | Yield of 51Cr from target cells, antibody dependent cytotoxicity, range of fluctuations (human tonsillocytes [3]; 1 μg/ml): 1.0-32.0% | Yield of 51Cr from target cells, antibody dependent cytotoxicity, average (human tonsillocytes [3]; [14]): 14.0% | Yield of 51Cr from target cells, antibody dependent cytotoxicity, range of fluctuations (human tonsillocytes [3]; 10 μg/ml): 1.0-36.0% | Yield of 51Cr from target cells, antibody dependent cytotoxicity, average (human tonsillocytes [3]; [15]): 14.2% | Yield of 51Cr from target cells, antibody dependent cytotoxicity, range of fluctuations (human tonsillocytes [3]; 100 μg/ml): 8.0-39.0% | Yield of 51Cr from target cells, antibody dependent cytotoxicity, average (human tonsillocytes [3]; [16]): 22.8% | minimal effective concentration (human tonsillocytes [3]): 100 µg/mL | concentrations of c-AMP and c-GMP (splenocytes): reciprocal variations of concentrations of c-AMP and c-GMP | Degree of inhibition of the virus reproduction ([4]; 1 μg/ml): 0 times | Degree of inhibition of the virus reproduction ([4]; 10 μg/ml): 10 times | antibacterial activity lower by a factor of [5]: 2 | effect in respect of various immunological responses (immune system): stimulating effect in respect of various immunological responses | toxicity and side effects [13]: high toxicity and a high frequency of the observed side effects | toxicity and side effects ([13]; listed as Levamizole): toxic and has diverse side effects | Percent of degranulated mastocytes, Lungs [10, 17]: 18.1 ± 1.9% | Percent of degranulated mastocytes, Trachea [10, 17]: 17.3 ± 1.8% | Percent of degranulated mastocytes, Lungs [10, 18]: 6.1 ± 1.1% | Percent of degranulated mastocytes, Trachea [10, 18]: 7.4 ± 0.2% | concentration inhibiting the formation of the IgE-antibodies in the respiratory organs ([10]; rat, in vivo): 500 µg/mL
